Results from the OligoGym collection.
Several values for one entry are separate records, joined by “and”; a condition that tells them apart may be missing. Equal entries are not always repeated. After the bases stand the sugars from the 5' end (letter, count) and the backbone: PS all phosphorothioate, else s phosphorothioate and o phosphodiester by linkage. Methylation of C is not given here. e = 2'-O-(2-methoxyethyl) (MOE); k = constrained ethyl (cEt); d = 2'-deoxy (DNA)

Target: SOD1
Conditions: ASO

Sequence “AGTGTTTAATGTTTAT (sugars kekeddddddddekek, linkages s1 o3 s8 o1 s2)” has a target mRNA inhibition (A431, 0.12 µM) of 2%, a target mRNA inhibition (A431, 0.6 µM) of 31% and a target mRNA inhibition (A431, 3 µM) of 47%. It also gave a target mRNA inhibition (A431, 15 µM) of 61%.

For “AGTGTTTAATGTTTATC (sugars e2 k2 d9 k2 e2, PS)”, the target mRNA inhibition (HepG2, 0.1875 µM) was 35%, the target mRNA inhibition (HepG2, 0.75 µM) was 66% and the target mRNA inhibition (HepG2, 3 µM) was 83%. The target mRNA inhibition (HepG2, 4 µM) was 75%, the target mRNA inhibition (HepG2, 5 µM) was 80% and the target mRNA inhibition (HepG2, 12 µM) was 84% and 87%.

“AGTGTTTAATGTTTATCA (sugars e5 d8 e5, linkages s1 o3 s9 o2 s2)” gave a target mRNA inhibition (A431, 0.12 µM) of 2%, a target mRNA inhibition (A431, 0.6 µM) of 35% and a target mRNA inhibition (A431, 3 µM) of 52%. It also gave a target mRNA inhibition (A431, 15 µM) of 67%, a target mRNA inhibition (HepG2, 0.222 µM) of 33% and a target mRNA inhibition (HepG2, 0.667 µM) of 58%. For the same sequence, the target mRNA inhibition (HepG2, 2 µM) was 74% and the target mRNA inhibition (HepG2, 6 µM) was 86%.

“AGTTTAATACCCATCTG (sugars e2 k2 d8 k2 e3, PS)” was tested, and the target mRNA inhibition (HepG2, 5 µM) was 29%.

“AGTTTCTCACTACAGGT (sugars e2 k2 d9 k2 e2, PS)” was tested, and the target mRNA inhibition (HepG2, 5 µM) was 50%.

“ATAAAACTATACAAATC (sugars e3 k2 d7 k2 e3, PS)” showed a target mRNA inhibition (HepG2, 3 µM) of 14%.

“ATAAGTGCCATACAGGG (sugars e2 k2 d9 k2 e2, PS)” gave a target mRNA inhibition (HepG2, 5 µM) of 46%.

“ATACAAATCTTCCAAGT (sugars e3 k2 d7 k2 e3, PS)” was tested, and the target mRNA inhibition (HepG2, 3 µM) was 15%.

In the case of “ATACAGGTCATTGAAAC (sugars e3 k2 d7 k2 e3, PS)”, the target mRNA inhibition (HepG2, 3 µM) was 14%.

Work on “ATAGAGGATTAAAGTGA (sugars e3 k2 d7 k2 e3, PS)” yielded a target mRNA inhibition (HepG2, 3 µM) of 9%.

In the case of “ATAGCCTCATAATAAGT (sugars e2 k2 d8 k2 e3, PS)”, the target mRNA inhibition (HepG2, 5 µM) was 20%.

“ATAGCCTCATAATAAGT (sugars e2 k2 d9 k2 e2, PS)” gave a target mRNA inhibition (HepG2, 5 µM) of 27%.

“ATCAGTTTCTCACTACA (sugars e2 k2 d9 k2 e2, PS)” gave a target mRNA inhibition (HepG2, 5 µM) of 44%.

Sequence “ATCCAAGGGAATGTTTA (sugars e3 k2 d7 k2 e3, PS)” has a target mRNA inhibition (HepG2, 3 µM) of 42%.

With “ATCCTTTGGCCCACCGT (sugars e3 k2 d7 k2 e3, PS)” the target mRNA inhibition (HepG2, 3 µM) was 51%.

Sequence “ATCTGTGATTTAAGTCT (sugars e2 k2 d8 k2 e3, PS)” has a target mRNA inhibition (HepG2, 5 µM) of 35%.

With “ATCTTCCAAGTGATCAT (sugars e2 k2 d8 k2 e3, PS)” the target mRNA inhibition (HepG2, 5 µM) was 38%.

“ATGATGCCCTGCACTGGGCC (sugars e5 d10 e5, PS)” showed a target mRNA inhibition (HepG2, 4 µM) of 20%.

With “ATGCCTCTCTTCATCCT (sugars e3 k2 d7 k2 e3, PS)” the target mRNA inhibition (HepG2, 3 µM) was 0%.

In the case of “ATGTTTATCAGGATACA (sugars eeeeddddddddkekee, linkages s1 o2 s9 o2 s2)”, the target mRNA inhibition (A431, 0.062 µM) was 12%, the target mRNA inhibition (A431, 0.185 µM) was 19% and the target mRNA inhibition (A431, 0.556 µM) was 29%. The target mRNA inhibition (A431, 1.667 µM) was 38%, the target mRNA inhibition (A431, 5 µM) was 51% and 50% and the target mRNA inhibition (A431, 15 µM) was 61%. The target mRNA inhibition (SH-SY5Y, 0.062 µM) was 15%, the target mRNA inhibition (SH-SY5Y, 0.185 µM) was 27% and the target mRNA inhibition (SH-SY5Y, 0.556 µM) was 52%. The target mRNA inhibition (SH-SY5Y, 1.667 µM) was 63%, the target mRNA inhibition (SH-SY5Y, 5 µM) was 79% and the target mRNA inhibition (SH-SY5Y, 15 µM) was 92%.

“ATGTTTATTGGGCGATC (sugars e2 k2 d9 k2 e2, PS)” was tested, and the target mRNA inhibition (HepG2, 4 µM) was 64%.

“ATTCACAGGCTTGAATG (sugars e3 k2 d7 k2 e3, PS)” was tested, and the target mRNA inhibition (HepG2, 3 µM) was 11%.

“ATTGAAACAGACATTTTAAC (sugars e5 d10 e5, PS)” showed a target mRNA inhibition (HepG2, 5 µM) of 0%.

Work on “ATTTCTACAGCTAGCAG (sugars e3 k2 d7 k2 e3, PS)” yielded a target mRNA inhibition (HepG2, 3 µM) of 45%.

Sequence “ATTTCTACAGCTAGCAGGAT (sugars e5 d10 e5, PS)” has a target mRNA inhibition (HepG2, 4 µM) of 69% and a target mRNA inhibition (HepG2, 12 µM) of 82%.

“CAAATCTTCCAAGTGAT (sugars e3 k2 d7 k2 e3, PS)” gave a target mRNA inhibition (HepG2, 3 µM) of 18%.

“CAAGGGAATGTTTATTG (sugars e3 k2 d7 k2 e3, PS)” was tested, and the target mRNA inhibition (HepG2, 3 µM) was 19%.

Work on “CAAGTTTAATACCCATC (sugars e2 k2 d9 k2 e2, PS)” yielded a target mRNA inhibition (HepG2, 5 µM) of 62%.

“CAATTACACCACAAGCC (sugars e3 k2 d7 k2 e3, PS)” showed a target mRNA inhibition (HepG2, 3 µM) of 33%.

“CACAGGCTTGAATGACA (sugars e2 k2 d8 k2 e3, PS)” gave a target mRNA inhibition (HepG2, 5 µM) of 34%.

In the case of “CACAGGCTTGAATGACA (sugars e2 k2 d9 k2 e2, PS)”, the target mRNA inhibition (HepG2, 5 µM) was 47%.

“CACCACAAGCCAAACGA (sugars e2 k2 d9 k2 e2, PS)” was tested, and the target mRNA inhibition (HepG2, 4 µM) was 46%.

In the case of “CACCGTGTTTTCTGGATAGA (sugars e5 d10 e5, PS)”, the target mRNA inhibition (HepG2, 5 µM) was 24% and 11%.

“CACTACAGGTACTTTAA (sugars e2 k2 d9 k2 e2, PS)” showed a target mRNA inhibition (HepG2, 5 µM) of 38%.

Work on “CACTTTTAAGATTACAG (sugars e2 k2 d8 k2 e3, PS)” yielded a target mRNA inhibition (HepG2, 5 µM) of 37%.

For “CAGCTAGCAGGATAACA (sugars e2 k2 d8 k2 e3, PS)”, the target mRNA inhibition (HepG2, 4 µM) was 71%.

With “CAGCTAGCAGGATAACA (sugars e2 k2 d9 k2 e2, PS)” the target mRNA inhibition (HepG2, 4 µM) was 61%.
